{"source": "patent US20200054671A1", "about": "“TREATMENT OF ANXIETY DISORDER AND AUGMENTATION OF ANTI-ANXIETY INTERVENTIONS BY ADMINISTRATION OF NOBLE GAS CONTAINING MIXTURES” (NOBILIS THERAPEUTICS, INC., priority 2016, published 2020)", "key": {"[1]": {"system": "patients with panic disorder", "assay": "Tolerability of xenon therapy in the clinical trial", "type": "in vivo, human", "details": "mainly headache and dizziness", "description": "This investigator-initiated study was performed under a prospective clinical trial protocol approved by the Institute of Mental Health and Addictology, which is accredited by the Ministry of Health of the Russian Federation to conduct clinical trials (#57689). Study conduct was in compliance with all ethical standards and good clinical practice. Ninety outpatients with a diagnosis of “panic disorder» (F41.0) according to ICD-10 were enrolled through the Institute of Mental Health and Addictology. Five patients dropped out of the study due to minor side effects, predominantly lightheadedness and headaches, and 4 patients dropped out of the study for unspecified reasons. As the intention to treat analysis was not utilized due to the open label design of the study, 81 patients with PD (49 women and 32 men), mean age was 35.2 years (range […]) were studied. Patients were randomized into 2 groups: with “pure” PD (group 1) and “comorbid” PD, when it was co-diagnosed with other mental illnesses (group 2). […]\n(§1) Medical grade xenon (“medksenon»®, 99.9999%, manufacturer: Atommedcenter, Moscow, Russia) and medical grade oxygen in separate containers were admixed. […] The patients were assessed subjectively by the provider, while the vital signs (pulse, blood pressure, oxygen saturation) were continuously monitored."}, "[2]": {"system": "patients with panic disorder", "assay": "Zung Self-Rating Anxiety Scale (SAS)", "type": "in vivo, human", "description": "(§2) This investigator-initiated study was performed under a prospective clinical trial protocol approved by the Institute of Mental Health and Addictology, which is accredited by the Ministry of Health of the Russian Federation to conduct clinical trials (#57689). Study conduct was in compliance with all ethical standards and good clinical practice. Ninety outpatients with a diagnosis of “panic disorder» (F41.0) according to ICD-10 were enrolled through the Institute of Mental Health and Addictology. Five patients dropped out of the study due to minor side effects, predominantly lightheadedness and headaches, and 4 patients dropped out of the study for unspecified reasons. As the intention to treat analysis was not utilized due to the open label design of the study, 81 patients with PD (49 women and 32 men), mean age was 35.2 years (range […]) were studied. Patients were randomized into 2 groups: with “pure” PD (group 1) and “comorbid” PD, when it was co-diagnosed with other mental illnesses (group 2). All patients with isolated PD (Group 1, n=42) received monotherapy with xenon at the aforementioned schedule, while the majority of patients (94.9%) with PD and comorbid conditions, which were predominantly depression (group 2, n=39), in addition to xenon administration continued treatment for comorbid psychiatric disorders, which mainly consisted of antidepressants (SSRIs and SNRIs). In these patients, the reason for xenon treatment was the increase in the frequency and severity of panic attacks despite ongoing treatment with stable pharmacotherapy of at least 3 to 6 months' duration.\n(§3) Administration of xenon was performed through inhalation of xenon-oxygen mixtures that were escalated from 15%/85% to 30%/70% with titration increments of 5% per session. Each patient in the study underwent between 6 and 7 treatments with xenon-oxygen mixture. The first three sessions were carried out daily and from session 4 onward—every other day. The selected dosing regime and the composition of the gas mixtures were based on the historical evidence of safety of subanesthetic use of xenon in imaging.\n(§4) Medical grade xenon (“medksenon»®, 99.9999%, manufacturer: Atommedcenter, Moscow, Russia) and medical grade oxygen in separate containers were admixed. Mixing and administration of gases in preset concentration and volume was accomplished with the use of the medical device MAGi-AMTS1, which enables the operator to adjust the concentration of xenon in the gas mixture, and which contains the electronic flow meter with a software module that allows for such adjustments. Administration of xenon-oxygen mixture to the patient was carried out via a face mask. Patients were asked to slowly inhale, holding breath for 5 to 10 seconds; exhale into the loop and after 35-40 seconds exhale outside the contour and breath in the new portion of gas mixture. Xenon inhalation lasted from 2.5 to 4 minutes, and the xenon consumption was capped at 3.0 liters per procedure. The patients were assessed subjectively by the provider, while the vital signs (pulse, blood pressure, oxygen saturation) were continuously monitored.\n(§5) Patients were evaluated after each xenon inhalation and at 30 and 180 days after completion of treatment. To this end, we employed clinical psychopathological and clinical catamnestic methods, and psychometric scales that are widely used internationally to assess the treatment of mental disorders. Scale Assessment, Zung Self-Rating Anxiety Scale (SAS) was performed prior to starting therapy (V1), and at 1 and 6 months after treatment. According to this scale, SAS index of less than 45 points corresponds to the normal value, 45-59—to mild-to-moderate degree of anxiety, 60-74—to high degree of anxiety, more than 75—to an extremely high-level of anxiety. […]"}, "[3]": {"details": "cited from earlier work"}, "[4]": {"system": "patients with panic disorder", "assay": "Hospital Anxiety and Depression Scale, depression subscale (HADS_D)", "type": "in vivo, human", "details": "for HADS_D: patients with “clinically severe depression”: end of the active phase of treatment", "description": "as §2, §3, §1\nPatients were evaluated after each xenon inhalation and at 30 and 180 days after completion of treatment. […]"}, "[5]": {"system": "patients with panic disorder", "assay": "Hospital Anxiety and Depression Scale, anxiety subscale (HADS_T), open clinical trial of xenon inhalation", "type": "in vivo, human", "details": "for HADS-T, V6 − V1, mean paired difference: after 6 sessions vs baseline; for HADS_T total score: after 3 sessions (V3)", "description": "as §2, §3, §4\nPatients were evaluated after each xenon inhalation and at 30 and 180 days after completion of treatment. To this end, we employed clinical psychopathological and clinical catamnestic methods, and psychometric scales that are widely used internationally to assess the treatment of mental disorders. […]"}, "[6]": {"system": "patients with panic disorder", "assay": "Frequency of major and minor panic attacks", "type": "in vivo, human", "details": "for The frequency of major panic attacks 6 months after treatment, Mean / The frequency of major panic attacks 6 months after treatment, Median / Changes Minor Panic Attacs_V6_V1, Mean / Changes Minor Panic Attacs_V6_V1, Median / Changes_Major Panic Attacs_V6_V1, Mean / Changes_Major Panic Attacs_V6_V1, Median: per month; for Changes Minor Panic Attacs_V6_V1, Mean / Changes Minor Panic Attacs_V6_V1, Median / Changes_Major Panic Attacs_V6_V1, Mean / Changes_Major Panic Attacs_V6_V1, Median: vs before treatment", "description": "as §2, §3, §4, §5"}}, "note": "Values joined by “and” are separate entries in the source; they are usually repeats but may differ in a detail not shown here. Identical values can stand only once.", "data": [{"smiles": "[Xe]", "note": "[xenon]", "values": [{"measurement": "patients dropping out from the study due to side effects", "setting": "[1]; 5 patients", "value": 5.8, "unit": "%"}, {"measurement": "tolerability of xenon therapy", "setting": "[1]; side effects, were rare", "value": "generally well tolerated"}, {"measurement": "Zung SAS after 1 month − V1, mean paired difference", "setting": "[2]; Group 1 (n=42)", "value": "−36.131"}, {"measurement": "Zung SAS after 6 months − V1, mean paired difference", "setting": "[2]; Group 1 (n=42)", "value": "−38.214"}, {"measurement": "SAS total score", "setting": "[2]; Group 1, one month after treatment", "value": 36.5, "unit": "points"}, {"measurement": "SAS total score", "setting": "[2]; Group 1, study follow up (6 months)", "value": 34.5}, {"measurement": "Zung SAS after 1 month − V1, mean paired difference", "setting": "[2]; Group 2 (n=39)", "value": "−17.308"}, {"measurement": "Zung SAS after 6 months − V1, mean paired difference", "setting": "[2]; Group 2 (n=39)", "value": "−16.154"}, {"measurement": "SAS total score", "setting": "[2]; Group 2, one month after treatment", "value": 46.8, "unit": "points"}, {"measurement": "SAS total score", "setting": "[2]; Group 2, study follow up (6 months)", "value": 47.9}, {"measurement": "time at which end-expiratory xenon concentration reached a plateau", "setting": "[3]; during inhalational anesthesia", "value": 7, "unit": "min"}, {"measurement": "time to successful loading of xenon in the brain", "setting": "[3]; during inhalational anesthesia", "value": "approximately 15 minutes"}, {"measurement": "half-time for equilibration between xenon concentration in arterial blood and at the site of action", "setting": "[3]; inhalation", "value": "1.49 ± 0.04", "unit": "min"}, {"measurement": "HADS_D: patients in whom “clinically severe depression” was absent", "setting": "[4]; group 1, after 3 xenon treatments", "value": 90.5, "unit": "%"}, {"measurement": "HADS_D: patients with “clinically severe depression”", "setting": "[4]; group 1", "value": 2.4, "unit": "%"}, {"measurement": "HADS_D: patients in whom “clinically severe depression” was present", "setting": "[4]; group 2, after 3 xenon treatments", "value": 82.1, "unit": "%"}, {"measurement": "HADS_D: patients with “clinically severe depression”", "setting": "[4]; group 2", "value": 46.2, "unit": "%"}, {"measurement": "HADS-T, V6 − V1, mean paired difference", "setting": "[5]; Group 1 («pure» PD, n=42, xenon monotherapy)", "value": "−11.214"}, {"measurement": "HADS_T total score", "setting": "[5]; Group 1", "value": 13.3}, {"measurement": "HADS-T, V6 − V1, mean paired difference", "setting": "[5]; Group 2 («comorbid» PD, n=39)", "value": "−11.436"}, {"measurement": "HADS_T total score", "setting": "[5]; Group 2", "value": 13.3}, {"measurement": "HADS_T overall score category", "setting": "[5]; both groups, end of treatment (V6)", "value": "norm"}, {"measurement": "The frequency of minor panic attacks 6 months after treatment, Mean", "setting": "[6]; Total (n = 81)", "value": ".6 times/month"}, {"measurement": "The frequency of minor panic attacks 6 months after treatment, Median", "setting": "[6]; Total (n = 81)", "value": ".0 times/month"}, {"measurement": "The frequency of major panic attacks 6 months after treatment, Mean", "setting": "[6]; Total (n = 81)", "value": ".0"}, {"measurement": "The frequency of major panic attacks 6 months after treatment, Median", "setting": "[6]; Total (n = 81)", "value": ".0"}, {"measurement": "Changes Minor Panic Attacs_V6_V1, Mean", "setting": "[6]; Total (n = 81)", "value": "−42.7"}, {"measurement": "Changes Minor Panic Attacs_V6_V1, Median", "setting": "[6]; Total (n = 81)", "value": "−55.0"}, {"measurement": "Changes_Major Panic Attacs_V6_V1, Mean", "setting": "[6]; Total (n = 81)", "value": "−9.6"}, {"measurement": "Changes_Major Panic Attacs_V6_V1, Median", "setting": "[6]; Total (n = 81)", "value": "−7.0"}, {"measurement": "“major” panic attacks 6 months after treatment", "setting": "[6]; both groups", "value": "absent"}, {"measurement": "panic attacks after the 6th treatment", "setting": "[6]; conclusion from HADS_T, CGI-I, CGI-S", "value": "complete cessation of panic attacks"}, {"measurement": "The frequency of minor panic attacks 6 months after treatment, Mean", "setting": "[6]; «Comorbid PD» (n = 39)", "value": "1 times/month and 1.0 times/month"}, {"measurement": "The frequency of minor panic attacks 6 months after treatment, Median", "setting": "[6]; «Comorbid PD» (n = 39)", "value": ".0 times/month"}, {"measurement": "The frequency of major panic attacks 6 months after treatment, Mean", "setting": "[6]; «Comorbid PD» (n = 39)", "value": ".0"}, {"measurement": "The frequency of major panic attacks 6 months after treatment, Median", "setting": "[6]; «Comorbid PD» (n = 39)", "value": ".0"}, {"measurement": "Changes Minor Panic Attacs_V6_V1, Mean", "setting": "[6]; «Comorbid PD» (n = 39)", "value": "−40.7"}, {"measurement": "Changes Minor Panic Attacs_V6_V1, Median", "setting": "[6]; «Comorbid PD» (n = 39)", "value": "−40.0"}, {"measurement": "Changes_Major Panic Attacs_V6_V1, Mean", "setting": "[6]; «Comorbid PD» (n = 39)", "value": "−11.7"}, {"measurement": "Changes_Major Panic Attacs_V6_V1, Median", "setting": "[6]; «Comorbid PD» (n = 39)", "value": "−12.0"}, {"measurement": "The frequency of minor panic attacks 6 months after treatment, Median", "setting": "[6]; «Pure PD» (n = 42)", "value": ".0 times/month"}, {"measurement": "The frequency of major panic attacks 6 months after treatment, Mean", "setting": "[6]; «Pure PD» (n = 42)", "value": ".0"}, {"measurement": "The frequency of major panic attacks 6 months after treatment, Median", "setting": "[6]; «Pure PD» (n = 42)", "value": ".0"}, {"measurement": "Changes Minor Panic Attacs_V6_V1, Mean", "setting": "[6]; «Pure PD» (n = 42)", "value": "−44.5"}, {"measurement": "Changes Minor Panic Attacs_V6_V1, Median", "setting": "[6]; «Pure PD» (n = 42)", "value": "−55.0"}, {"measurement": "Changes_Major Panic Attacs_V6_V1, Mean", "setting": "[6]; «Pure PD» (n = 42)", "value": "−7.7"}, {"measurement": "Changes_Major Panic Attacs_V6_V1, Median", "setting": "[6]; «Pure PD» (n = 42)", "value": "−3.0"}]}]}
